The values below come from US8952054B2, “Small molecule inhibitors of MUC1 and methods of identifying the same” (Dana-Farber Cancer Institute, Inc., priority 2010, dated 2015).

One data set addresses CYP2C9 (Homo sapiens, UniProt P11712). To be noted: cited from earlier work.
The next data set addresses T1, MUC1-C (Homo sapiens, UniProt P15941).
T1 sequence (P15941 1098-1255 limits assumed): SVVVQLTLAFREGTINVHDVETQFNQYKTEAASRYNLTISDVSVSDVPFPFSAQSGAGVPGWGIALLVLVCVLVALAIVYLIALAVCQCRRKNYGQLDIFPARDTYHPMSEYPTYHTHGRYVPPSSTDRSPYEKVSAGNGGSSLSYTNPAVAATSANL
Briefly: Immunoblot of nuclear MUC1-C levels in MCF-7 cells (peptide). Type of data set: cell-based. Also noted: Human ZR-75-1 and MCF-7 breast cancer cells overexpress endogenous MUC1; endogenous in cells; host or cells: ZR-75-1; MCF-7. To be noted: MCF-7, 5 μM peptide, 3 d. As for the experimental part: FIGS. 2A-C. MUC1/CQC peptide blocks nuclear localization of MUC1-C. (FIG. 2A) ZR-75-1 cells were incubated with 5 μM FITC-labeled MUC1/CQC peptide for the indicated times and then analyzed by flow cytometry. The mean fluorescence index (MFI) is included in each of the panels. (FIGS. 2B-C) ZR-75-1 (FIG. 2B) and MCF-7 (FIG. 2C) cells were incubated in the presence of 5 μM MUC1/CQC or MUC1/AQA peptide for 3 d. Whole cell lysates (WCL) (left panels) and nuclear lysates (right panels) were immunoblotted with the indicated antibodies.
Whole cell and nuclear lysates were prepared as described (Leng et al., 2007). Soluble proteins were subjected to immunoprecipitation with anti-Flag (Sigma, St. Louis, Mo.). Immunoprecipitates and soluble proteins were analyzed by immunoblotting with anti-His (Cell Signaling Technology, Danvers, Mass.), anti-GFP (Millipore, Danvers, Mass.), anti-Flag, anti-MUC1-C (Ab1; NeoMarkers, Fremont, Calif.), anti-lamin B (EMD, La Jolla, Calif.) or anti-β-actin (Sigma). Reactivity was detected with horseradish peroxidase-conjugated second antibodies and chemiluminescence.

Sequence of CYP2C9 (P11712 whole entry, species assumed): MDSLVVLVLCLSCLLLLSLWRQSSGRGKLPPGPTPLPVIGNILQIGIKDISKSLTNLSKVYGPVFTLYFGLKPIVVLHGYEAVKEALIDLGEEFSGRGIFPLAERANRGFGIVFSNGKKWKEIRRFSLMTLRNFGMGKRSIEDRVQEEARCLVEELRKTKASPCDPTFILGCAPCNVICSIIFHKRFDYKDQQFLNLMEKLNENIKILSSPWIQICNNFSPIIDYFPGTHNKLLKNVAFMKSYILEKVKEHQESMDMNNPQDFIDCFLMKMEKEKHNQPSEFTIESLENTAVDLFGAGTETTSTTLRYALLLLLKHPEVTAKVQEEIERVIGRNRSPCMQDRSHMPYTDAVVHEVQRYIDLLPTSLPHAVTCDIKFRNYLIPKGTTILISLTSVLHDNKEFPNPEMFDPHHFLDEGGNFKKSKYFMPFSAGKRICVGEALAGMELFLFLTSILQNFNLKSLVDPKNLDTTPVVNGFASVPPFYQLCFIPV

With `O=c1cc(-c2ccc(O)cc2)oc2cc(O)cc(O)c12` [Apigenin, 4′,5,7-trihydroxyflavone], at CYP2C9, the “inhibition of CYP2C9” value was “potent inhibitor”.
For the compound `CC[C@H](C)[C@H](NC(=O)[C@H](CC(=O)O)NC(=O)[C@H](CC(C)C)NC(=O)[C@H](CCC(N)=O)NC(=O)CNC(=O)[C@H](Cc1ccc(O)cc1)NC(=O)[C@H](CC(N)=O)NC(=O)[C@H](CCCCN)NC(=O)[C@H](CCCNC(=N)N)NC(=O)[C@H](CCCNC(=N)N)NC(=O)[C@H](CS)NC(=O)[C@H](CCC(N)=O)NC(=O)[C@H](CS)NC(=O)[C@@H](CCCNC(=N)N)NC(=O)[C@@H](CCCNC(=N)N)NC(=O)[C@@H](CCCNC(=N)N)NC(=O)[C@@H](CCCNC(=N)N)NC(=O)[C@@H](CCCNC(=N)N)NC(=O)[C@@H](CCCNC(=N)N)NC(=O)[C@@H](CCCNC(=N)N)NC(=O)[C@@H](CCCNC(=N)N)NC(=O)[C@H](N)CCCNC(=N)N)C(=O)N[C@@H](Cc1ccccc1)C(=O)N1CCC[C@H]1C(=O)O` [MUC1/CQC], the “nuclear MUC1-C levels” value at MUC1-C is given as “down-regulation of nuclear MUC1-C levels”.
